Experimental data taken from US20090239896A1, “AZAINDOLE COMPOUNDS AND USE THEREOF AS PHOSPHOLIPASE-A2 INHIBITORS” (priority 2005, published 2009).

What was measured:
Caco-2 monolayers = test: in-vitro Caco-2 permeability study (Example 6B); assay type: in vitro ADME, human
Procedure: The culture medium was refreshed every 48 hours.
Papp=(dQ/dt)X(1/C0)X(1/A)

[1] = pharmokinetic study of ILY-4001, IV and oral (Example 6C); assay type: in vivo, mice; conditions: 30 mg/kg oral
Procedure: This example evaluated the bioavailability of ILY-4001 [2-(3-(2-amino-2-oxoacetyl)-1-(biphenyl-2-ylmethyl)-2-methyl-1H-indol-4-yloxy)acetic acid], alternatively referred to herein as methyl indoxam. Specifically, a pharmokinetic study was conducted to determine the fraction of unchanged ILY-4001 in systemic circulation following administration.
Bioavailability was calculated as a ratio of AUC-oral/AUC-intravenous (IV). To determine this ratio, a first set of subject animals were given a measured intravenous (IV) dose of ILY-4001, followed by a determination of ILY-4001 levels in the blood at various time points after administration (e.g., 5 minutes through 24 hours). Another second set of animals was similarly dosed using oral administration, with blood levels of ILY-4001 determined at various time points after administration (e.g., 30 minutes through 24 hours). The level of ILY-4001 in systemic circulation were determined by generally accepted methods (for example as described in Evans, G., A Handbook of Bioanalysis and Drug Metabolism. Boca Raton, CRC Press (2004)). Specifically, […]/mass spectrometry/mass spectrometry (LC/MS/MS) analytical methods were used to quantitate plasma concentrations of ILY-4001 after oral and intravenous administration. Pharmacokinetic parameters that were measured include Cmax, AUC, tmax, t1/2, and F (bioavailability). […]

[2] = system: C57BL/6 wild-type mice on high fat/high sucrose diabetogenic diet; test: in-vivo evaluation in mice on high fat/high sucrose diabetogenic diet (Example 5); design: species or system mouse; conditions: for fasting glucose levels: low dose (25 mg/kg/day)
Procedure: Briefly, four groups were set up, each having six mice. Three of the groups included six wild-type PLA2 (+/+) mice in each group (eighteen mice total), and one of the groups included six genetically deficient PLA2 (−/−) mice. One of the wild-type groups was used as a wild-type control group, and was not treated with ILY-4001. The other two wild-type groups were treated with ILY-4001—one group at a lower dose (indicated as “L” in Table 1) of 25 mg/kg/day, and the other at a higher dose (indicated as “H” in Table 1) of 90 mg/kg/day. The group comprising the PLA2 (−/−) mice was used as a positive control group.
The experimental protocol used in this study was as follows. The four groups of mice, including wild type and isogenic PLA2 (−/−) C57BL/J mice were acclimated for three days on a low fat/low carbohydrate diet. After the three day acclimation phase, the animals were ? and serum samples taken to establish baseline plasma cholesterol, triglyceride, and glucose levels, along with baseline body weight. The mice in each of the treatment groups were then fed a high fat/high sucrose diabetogenic diet (Research Diets D12331). 1000 g of the high fat/high sucrose D12331 diet was composed of casein (228 g), DL-methionine (2 g), maltodextrin 10 (170 g), sucrose (175 g), soybean oil (25 g), hydrogenated coconut oil (333.5 g), mineral mix S10001 (40 g), sodium bicarbonate (10.5 g), potassium citrate (4 g), vitamin mix V10001 (10 g), and choline bitartrate (2 g). This diet was supplemented with ILY-4001 treatments such that the average daily dose of the compound ingested by a 25 g mouse was: 0 mg/kg/day (wild-type control group and PLA2 (−/−) control group); 25 mg/kg/day (low-dose wild-type treatment group), or 90 mg/kg/day (high-dose wild-type treatment group). The animals were maintained on the high fat/high sucrose diet, with the designated ILY-4001 supplementation, for a period of ten weeks.
Body weight measurements were taken for all animals in all treatment and control groups at the beginning of the treatment period and at 4 weeks and 10 weeks after initiation of the study. (See Example 5A). Blood draws were also taken at the beginning of the treatment period (baseline) and at 4 weeks and 10 weeks after initiation of the study, in order to determine fasting glucose (See Example 5B). Cholesterol and triglyceride levels were determined from blood draws taken at the beginning of the treatment (baseline) and at ten weeks. (See Example 5C).
In the study generally described above in Example 5, body weight measurements were taken for all animals in all treatment and control groups at the beginning of the treatment period and at 4 weeks and 10 weeks after initiation of the study.
In the study generally described above in Example 5, blood draws were taken at the beginning of the treatment period (baseline) and at 4 weeks and 10 weeks after initiation of the study, in order to determine fasting glucose.
In the study generally described above in Example 5, blood draws were taken at the beginning of the treatment period (baseline) and at 10 weeks after initiation of the study, in order to determine cholesterol and triglyceride levels.

stability at low pH = assay type: physicochemical; conditions: predicted to survive passage through the stomach
human PLA2 IB enzyme = human PLA2 IB enzyme (Homo sapiens, UniProt P04054); conditions: pyrene substrate release from vesicles; Singer, Ghomashchi et al. 2002; read-out: IC50 value versus the human PLA2 IB enzyme; cited from earlier work
human PLA2 IB enzyme, sequence (P04054 23-148): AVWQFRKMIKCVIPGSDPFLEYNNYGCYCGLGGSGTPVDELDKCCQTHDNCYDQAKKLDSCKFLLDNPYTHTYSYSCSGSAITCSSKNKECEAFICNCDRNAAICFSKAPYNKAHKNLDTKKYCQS

mouse PLA2 IB enzyme = mouse PLA2 IB enzyme (Mus musculus, UniProt Q9Z0Y2); conditions: pyrene substrate release from vesicles; Singer, Ghomashchi et al. 2002; read-out: IC50 value versus the mouse PLA2 IB enzyme; cited from earlier work
mouse PLA2 IB enzyme, sequence (Q9Z0Y2 23-146): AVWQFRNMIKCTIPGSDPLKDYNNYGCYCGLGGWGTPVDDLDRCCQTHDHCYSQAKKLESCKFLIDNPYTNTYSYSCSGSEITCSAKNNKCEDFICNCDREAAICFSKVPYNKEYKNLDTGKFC

[3] = low and high doses (25 and 90 mg/kg/day), 10 weeks

Molecule	absorption from the GI lumen (Caco-2 monolayers; based on Caco-2 assays and pharmokinetic studies)	level of non-absorption from the GI tract into systemic circulation [1] [%]	body weight gain compared to wild-type control group ([2]; 25 mg/kg/d and 90 mg/kg/d in diet, week 4 and week 10)	plasma levels of cholesterol [2, 3]	plasma levels of triglycerides [2, 3]	fasting glucose levels ([2]; week four)	fasting glucose levels ([2]; week ten)	stability at low pH (stability at low pH)	IC50 (human PLA2 IB enzyme) [nM]	IC50 (mouse PLA2 IB enzyme) [nM]	apparent permeability (Caco-2 monolayers; Caco-2)
Cc1c(C(=O)C(N)=O)c2c(OCC(=O)O)cccc2n1Cc1ccccc1-c1ccccc1 [ILY-4001, 2-(3-(2-amino-2-oxoacetyl)-1-(biphenyl-2-ylmethyl)-2-methyl-1H-indol-4-yloxy)acetic acid]	relatively low	~72	significantly reduced	substantially reduced	substantially reduced	moderately beneficial effect	a beneficial effect was not observed	stable	~200	~150	
Lucifer Yellow											around 2.82×10^−7+/−0.37×10^−7 cm/s
